Earlier results as cited in patent publication US7329419B2, “Herbal supplement to support weight loss” (Herbalife International, Inc., priority 2004, dated 2008).

Experiments:
muscle tissues = details: animal studies

| Substance | energy expenditure (metabolic rate) in muscle tissues (muscle tissues) | increase in metabolism (compared to control) | respiratory quotient (in vivo) |
| --- | --- | --- | --- |
| Gingerols | increase energy expenditure |  |  |
| epigallocatechin-3-gallate [EGCG] |  | approximately 5% | lowers the respiratory quotient |
